Tested on: RNAi-treated eri-1 (mg366) nematodes
Assay: RNAi screening of olfactory receptor genes: chemotaxis assay of RNAi-treated nematodes to odorants
Assay type: in vivo, Caenorhabditis elegans
Settings: repellent or high concentration of attractant
Procedure, shortened: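 eri-1 (mg366) worms knocked down by feeding RNAi (Ahringer library) on IPTG/ampicillin NGM plates with E. coli for 4 days, then tested for chemotaxis, 30–50 worms per assay. Odorants at 1 μl of 10^−3 or 10^−4 dilution, or 1 and 5 μl undiluted. Hits scored by z score, thresholds ±1.96 (P<0.05) or ±0.96.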

Question: For CCCCCCCC(C)=O [nonanone], which chemotaxis index (Control nematodes) is on record?
Answer: Its chemotaxis index is −0.91 ± 0.009.

Question: And the chemotaxis index (srh-4 RNAi-treated nematodes)?
Answer: Its chemotaxis index is −0.87.

Question: And the chemotaxis index (srh-7 RNAi-treated nematodes)?
Answer: Its chemotaxis index is −0.78.

Question: What about the chemotaxis index (srh-8 RNAi-treated nematodes) of the same compound?
Answer: The chemotaxis index was −0.86.

Question: What about the chemotaxis index (srh-10 RNAi-treated nematodes) of the same compound?
Answer: Its chemotaxis index is −0.88.

Question: What about the chemotaxis index (srh-11 RNAi-treated nematodes) of the same compound?
Answer: Its chemotaxis index is −0.65.

Question: What about the chemotaxis index (srh-15 RNAi-treated nematodes) of the same compound?
Answer: Its chemotaxis index is −0.25.

Question: And the chemotaxis index (srh-16 RNAi-treated nematodes)?
Answer: Its chemotaxis index is −0.63.

Question: What about the chemotaxis index (srh-18 RNAi-treated nematodes) of the same compound?
Answer: The chemotaxis index was −0.26.

Question: And the chemotaxis index (srh-19 RNAi-treated nematodes)?
Answer: The chemotaxis index was −0.80.

Question: And the chemotaxis index (srh-22 RNAi-treated nematodes)?
Answer: The chemotaxis index was −0.89.

Question: What about the chemotaxis index (srh-23 RNAi-treated nematodes) of the same compound?
Answer: The chemotaxis index was −0.77.

Question: And the chemotaxis index (srh-24 RNAi-treated nematodes)?
Answer: The chemotaxis index was −0.79.

Question: What about the chemotaxis index (srh-25 RNAi-treated nematodes) of the same compound?
Answer: Its chemotaxis index is −0.06.

Question: And the chemotaxis index (srh-27 RNAi-treated nematodes)?
Answer: The chemotaxis index was −0.79.

Question: And the chemotaxis index (srh-28 RNAi-treated nematodes)?
Answer: Its chemotaxis index is −0.71.

Question: And the chemotaxis index (srh-36 RNAi-treated nematodes)?
Answer: The chemotaxis index was −0.57.

Question: And the chemotaxis index (srh-37 RNAi-treated nematodes)?
Answer: Its chemotaxis index is −0.89.

Question: And the chemotaxis index (srh-39 RNAi-treated nematodes)?
Answer: The chemotaxis index was −0.90.

Question: And the chemotaxis index (srh-40 RNAi-treated nematodes)?
Answer: The chemotaxis index was −0.83.

Question: What about the chemotaxis index (srh-41 RNAi-treated nematodes) of the same compound?
Answer: Its chemotaxis index is −0.62.

Question: What about the chemotaxis index (srh-44 RNAi-treated nematodes) of the same compound?
Answer: The chemotaxis index was −0.58.

Question: And the chemotaxis index (srh-45 RNAi-treated nematodes)?
Answer: The chemotaxis index was −0.91.

Question: And the chemotaxis index (srh-46 RNAi-treated nematodes)?
Answer: Its chemotaxis index is −0.87.

Question: And the chemotaxis index (srh-48 RNAi-treated nematodes)?
Answer: Its chemotaxis index is −0.79.

Question: And the chemotaxis index (srh-49 RNAi-treated nematodes)?
Answer: The chemotaxis index was −0.91.

Question: And the chemotaxis index (srh-50 RNAi-treated nematodes)?
Answer: Its chemotaxis index is −0.96.

Question: And the chemotaxis index (srh-51 RNAi-treated nematodes)?
Answer: Its chemotaxis index is −0.90.

Question: And the chemotaxis index (srh-52 RNAi-treated nematodes)?
Answer: Its chemotaxis index is −0.85.

Question: What about the chemotaxis index (srh-55 RNAi-treated nematodes) of the same compound?
Answer: The chemotaxis index was −0.96.

Question: And the chemotaxis index (srh-59 RNAi-treated nematodes)?
Answer: Its chemotaxis index is −0.79.

Question: And the chemotaxis index (srh-60 RNAi-treated nematodes)?
Answer: The chemotaxis index was −0.83.

Question: And the chemotaxis index (srh-61 RNAi-treated nematodes)?
Answer: The chemotaxis index was −0.68.

Question: And the chemotaxis index (srh-67 RNAi-treated nematodes)?
Answer: The chemotaxis index was −0.61.

Question: What about the chemotaxis index (srh-68 RNAi-treated nematodes) of the same compound?
Answer: Its chemotaxis index is −0.65.

Question: And the chemotaxis index (srh-69 RNAi-treated nematodes)?
Answer: The chemotaxis index was −0.84.

Question: What about the chemotaxis index (srh-70 RNAi-treated nematodes) of the same compound?
Answer: The chemotaxis index was −0.81.

Question: And the chemotaxis index (srh-71 RNAi-treated nematodes)?
Answer: The chemotaxis index was −0.80.

Question: And the chemotaxis index (srh-72 RNAi-treated nematodes)?
Answer: The chemotaxis index was −0.87.

Question: And the chemotaxis index (srh-74 RNAi-treated nematodes)?
Answer: Its chemotaxis index is −0.96.

Question: And the chemotaxis index (srh-75 RNAi-treated nematodes)?
Answer: Its chemotaxis index is −0.86.

Question: What about the chemotaxis index (srh-77 RNAi-treated nematodes) of the same compound?
Answer: The chemotaxis index was −0.74.

Question: And the chemotaxis index (srh-79 RNAi-treated nematodes)?
Answer: Its chemotaxis index is −0.61.

Question: And the chemotaxis index (srh-80 RNAi-treated nematodes)?
Answer: The chemotaxis index was −0.81.

Question: What about the chemotaxis index (srh-82 RNAi-treated nematodes) of the same compound?
Answer: The chemotaxis index was −0.96.

Question: And the chemotaxis index (srh-83 RNAi-treated nematodes)?
Answer: Its chemotaxis index is −0.70.

Question: And the chemotaxis index (srh-97 RNAi-treated nematodes)?
Answer: The chemotaxis index was −0.66.

Question: And the chemotaxis index (srh-99 RNAi-treated nematodes)?
Answer: The chemotaxis index was −0.82.

Question: What about the chemotaxis index (srh-100 RNAi-treated nematodes) of the same compound?
Answer: Its chemotaxis index is −0.48.

Question: And the chemotaxis index (srh-104 RNAi-treated nematodes)?
Answer: The chemotaxis index was −0.71.

Question: What about the chemotaxis index (srh-105 RNAi-treated nematodes) of the same compound?
Answer: Its chemotaxis index is −0.80.

Question: And the chemotaxis index (srh-109 RNAi-treated nematodes)?
Answer: Its chemotaxis index is −0.84.

Question: What about the chemotaxis index (srh-111 RNAi-treated nematodes) of the same compound?
Answer: Its chemotaxis index is −0.71.

Question: What about the chemotaxis index (srh-113 RNAi-treated nematodes) of the same compound?
Answer: The chemotaxis index was −0.91.

Question: What about the chemotaxis index (srh-115 RNAi-treated nematodes) of the same compound?
Answer: Its chemotaxis index is −0.75.

Question: And the chemotaxis index (srh-116 RNAi-treated nematodes)?
Answer: Its chemotaxis index is −0.69.

Question: What about the chemotaxis index (srh-118 RNAi-treated nematodes) of the same compound?
Answer: The chemotaxis index was −0.89.

Question: And the chemotaxis index (srh-119 RNAi-treated nematodes)?
Answer: Its chemotaxis index is −0.84.

Question: And the chemotaxis index (srh-120 RNAi-treated nematodes)?
Answer: The chemotaxis index was −0.68.

Question: What about the chemotaxis index (srh-122 RNAi-treated nematodes) of the same compound?
Answer: Its chemotaxis index is −0.84.

Question: What about the chemotaxis index (srh-123 RNAi-treated nematodes) of the same compound?
Answer: Its chemotaxis index is −0.90.

Question: What about the chemotaxis index (srh-125 RNAi-treated nematodes) of the same compound?
Answer: The chemotaxis index was −0.77.

Question: What about the chemotaxis index (srh-128 RNAi-treated nematodes) of the same compound?
Answer: Its chemotaxis index is −0.89.

Question: What about the chemotaxis index (srh-129 RNAi-treated nematodes) of the same compound?
Answer: Its chemotaxis index is −0.90.

Question: And the chemotaxis index (srh-130 RNAi-treated nematodes)?
Answer: Its chemotaxis index is −0.94.

Question: What about the chemotaxis index (srh-131 RNAi-treated nematodes) of the same compound?
Answer: The chemotaxis index was −0.45.

Question: What about the chemotaxis index (srh-132 RNAi-treated nematodes) of the same compound?
Answer: Its chemotaxis index is −0.84.

Question: And the chemotaxis index (srh-139 RNAi-treated nematodes)?
Answer: The chemotaxis index was −0.91.

Question: What about the chemotaxis index (srh-140 RNAi-treated nematodes) of the same compound?
Answer: Its chemotaxis index is −0.80.

Question: And the chemotaxis index (srh-141 RNAi-treated nematodes)?
Answer: Its chemotaxis index is −0.94.

Question: And the chemotaxis index (srh-142 RNAi-treated nematodes)?
Answer: The chemotaxis index was −0.94.

Question: And the chemotaxis index (srh-145 RNAi-treated nematodes)?
Answer: Its chemotaxis index is −0.44.

Question: What about the chemotaxis index (srh-148 RNAi-treated nematodes) of the same compound?
Answer: The chemotaxis index was −0.78.

Question: What about the chemotaxis index (srh-154 RNAi-treated nematodes) of the same compound?
Answer: Its chemotaxis index is −0.58.

Question: What about the chemotaxis index (srh-159 RNAi-treated nematodes) of the same compound?
Answer: Its chemotaxis index is −0.48.

Question: What about the chemotaxis index (srh-165 RNAi-treated nematodes) of the same compound?
Answer: The chemotaxis index was −0.40.

Question: What about the chemotaxis index (srh-166 RNAi-treated nematodes) of the same compound?
Answer: The chemotaxis index was −1.00.

Question: And the chemotaxis index (srh-167 RNAi-treated nematodes)?
Answer: The chemotaxis index was −1.00.

Question: What about the chemotaxis index (srh-169 RNAi-treated nematodes) of the same compound?
Answer: Its chemotaxis index is −0.92.

Question: And the chemotaxis index (srh-174 RNAi-treated nematodes)?
Answer: Its chemotaxis index is −0.92.

Question: And the chemotaxis index (srh-179 RNAi-treated nematodes)?
Answer: Its chemotaxis index is −0.97.

Question: And the chemotaxis index (srh-182 RNAi-treated nematodes)?
Answer: Its chemotaxis index is −0.98.

Question: What about the chemotaxis index (srh-186 RNAi-treated nematodes) of the same compound?
Answer: The chemotaxis index was −0.93.

Question: And the chemotaxis index (srh-190 RNAi-treated nematodes)?
Answer: Its chemotaxis index is −1.00.

Question: What about the chemotaxis index (srh-193 RNAi-treated nematodes) of the same compound?
Answer: Its chemotaxis index is −0.84.

Question: What about the chemotaxis index (srh-195 RNAi-treated nematodes) of the same compound?
Answer: Its chemotaxis index is −0.98.

Question: What about the chemotaxis index (srh-201 RNAi-treated nematodes) of the same compound?
Answer: The chemotaxis index was −0.97.

Question: And the chemotaxis index (srh-203 RNAi-treated nematodes)?
Answer: Its chemotaxis index is −1.00.

Question: And the chemotaxis index (srh-204 RNAi-treated nematodes)?
Answer: Its chemotaxis index is −1.00.

Question: What about the chemotaxis index (srh-206 RNAi-treated nematodes) of the same compound?
Answer: The chemotaxis index was −1.00.

Question: What about the chemotaxis index (srh-207 RNAi-treated nematodes) of the same compound?
Answer: The chemotaxis index was −1.00.

Question: What about the chemotaxis index (srh-208 RNAi-treated nematodes) of the same compound?
Answer: The chemotaxis index was −0.82.

Question: And the chemotaxis index (srh-209 RNAi-treated nematodes)?
Answer: The chemotaxis index was −0.84.

Question: And the chemotaxis index (srh-210 RNAi-treated nematodes)?
Answer: Its chemotaxis index is −0.66.

Question: And the chemotaxis index (srh-214 RNAi-treated nematodes)?
Answer: The chemotaxis index was −0.96.

Question: And the chemotaxis index (srh-216 RNAi-treated nematodes)?
Answer: Its chemotaxis index is −0.83.

Question: What about the chemotaxis index (srh-217 RNAi-treated nematodes) of the same compound?
Answer: Its chemotaxis index is −0.44.

Question: And the chemotaxis index (srh-220 RNAi-treated nematodes)?
Answer: Its chemotaxis index is −0.28.

Question: What about the chemotaxis index (srh-222 RNAi-treated nematodes) of the same compound?
Answer: The chemotaxis index was −0.82.

Question: And the chemotaxis index (srh-223 RNAi-treated nematodes)?
Answer: The chemotaxis index was −0.74.

Source: patent US12493040B2, “Cancer detection method using sense of smell of nematode” (HIROTSU BIO SCIENCE INC., priority 2013, dated 2025)
